Two compounds from US20180228775A1, “METHODS OF TREATING CANCER” (Dana-Farber Cancer Institute, Inc., priority 2014, published 2018) can be followed below.

One assay deals with human PBMC. The experiment in a line: Culture of human PBMC with GM-CSF (K562-GM) and PPAR-γ modulators: Treg numbers. In kind it is cell-based.
The test system of assay [1] is GM-CSF treated human monocytes. In words: CCL17 and CCL22 expression by GM-CSF treated human monocytes (ELISA). The class given is cell-based. Conditions: human monocytes with GM-CSF. The procedure: CCL17 levels were normalized to the number of monocytes per well.
FIG. 43: Role of PPAR-g in restraining Treg recruitment and expansion is conserved in GM-CSF treated human monocytes.
CCL17 levels were measured using ELISA (DY364, R&D Systems).
In addition, these cultures were treated with DMSO or Rosi.
In general terms: An ELISA detects its analyte on a solid surface through an enzyme-linked reagent.

Structures are written as SMILES.

As to `CN(CCOc1ccc(CC2SC(=O)NC2=O)cc1)c1ccccn1` (stereo not shown) [Rosi, rosiglitazone], the Treg number entry in the assay on human PBMC (non-GM-CSF treated cultures (K562-WT)) is on record as “no effect”.
As to `O=C(Nc1ccncc1)c1cc([N+](=O)[O-])ccc1Cl` [T0070907], the “Treg number / GM-CSF induced Treg expansion” value in the assay with human PBMC (human PBMC with GM-CSF (K562-GM), 10 uM Rosi or T0070907 luM every 48 hours, day 4-6) is on record as “increase”. Also, the CCL22 expression result in assay [1] was “increasing”. The CCL17 expression result in assay [1] (10 uM Rosi, 5 days, ELISA) was “increasing”.
